According to patent publication US11702393B2, “Synthesis of a monoacylglycerol lipase inhibitor” (H. LUNDBECK A/S, priority 2020, dated 2023):
Read-outs that look alike come from different tables or passages of the source.

Columns and labels:
[1] = Particle size distribution determination by image analysis (Morphologi G3); type: physicochemical
From the text: The term “particle size distribution” (PSD) as used herein refers to the mean particle size from a statistical distribution of a range of particle sizes. The Compound I-HCl form 2 particle size distribution, in particular d90, d50, d10 values, may be determined by well-known methods of the prior art such as sieve analysis, laser diffraction methods, image analysis or optical counting methods.
As used herein, by “d90 particle size” refers to the particle diameter wherein 90 percent of the particle population has a diameter below such value.
As used herein, by “d50 particle size” refers to the median particle diameter, wherein half of the particle population has a diameter below such value.
As used herein, by “d10 particle size” refers to the particle diameter wherein 10 percent of the particle population has a diameter below such value.
The analysis of particle size distribution of each batch was performed by an image analysis method on a Morphologi G3 Automated Particle Characterization System (Malvern PaNanalytical) with a sample Dispersion Unit SDU Glass Plate (180×110 mm); the instrument automatically process the collected data using the software Morphologi ver. 8.20 and provides a cumulative distribution curve and results in terms of d10, d50 and d90.

[2] = process described in the prior art (WO2018/093953); cited from earlier work
[3] = made according to Example 13, not milled
[4] = made from Example 13, after milling (hammer mill, Example 14)

Q: With Cl.O=C(OC(C(F)(F)F)C(F)(F)F)N1CCN(Cc2ccc(C(F)(F)F)cc2N2CCCC2)CC1 [Compound I-HCl form 2, 1,1,1,3,3,3-hexafluoropropan-2-yl 4-(2-(pyrrolidin-1-yl)-4-(trifluoromethyl)benzyl)piperazine-1-carboxylate mono-hydrochloride salt Form 2] as the compound, how does the d10 particle size [1, 3] read?
A: The d10 particle size was “d10 53.5 μm”.

Q: And the d50 particle size [1, 3]?
A: The d50 particle size was “d50 133.1 μm”.

Q: What about the d90 particle size [1, 3] of the same compound?
A: The d90 particle size was “d90 201.7 μm”.

Q: What about the d10 particle size [1, 4] of the same compound?
A: Its d10 particle size is “d10 24 μm”.

Q: And the d50 particle size [1, 4]?
A: The d50 particle size was “d50 67 μm”.

Q: What about the d90 particle size [1, 4] of the same compound?
A: The d90 particle size was “d90 175 μm”.

Q: And the d10 particle size [2]?
A: The d10 particle size was ≥ 5 µm.

Q: And the d90 particle size [2]?
A: The d90 particle size was “up to 300 μm”.
